Results: patent US20230014181A1, “CULTURE SYSTEM AND METHODS FOR IMPROVED MODELING OF NEUROLOGICAL CONDITIONS” (Genentech, Inc., priority 2021, published 2023)
Like-named read-outs stand apart in the source and are kept apart here. Where a SMILES comes first, the peptide text is derived from it. The star is where a group is joined. Cbz = O=C(OCc1ccccc1)*

Columns and labels:
[1] = system: human iPSC neurons, astrocytes and microglia treated with 5 μM sAβ42s; assay: Focused small molecule screen, triple culture (neuron, astrocyte, microglia), rescue from sAβ42s toxicity; assay type: cell-based; details: for percent rescue from sAβ42s toxicity at 12.5 µM / percent rescue from sAβ42s toxicity at 50 µM: Homo sapiens, iPSC; for percent rescue from sAβ42s toxicity at 12.5 µM: 12.50 μM compound
Procedure, shortened: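 A hit was any compound giving ≥30% rescue of dendrite area (MAP2), synapse count, CUX2 cell count or axon area when dosed against 5 μM sAβ42s toxicity. Testing used iPSC-derived double (neuron/astrocyte) or triple (plus microglia) cultures, at four concentrations of 50, 25, 12.5 and 6.25 μM for double and 50, 12.5, 3.1 and 0.78 μM for triple cultures.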

[2] = system: human iPSC neurons and astrocytes treated with 5 μM sAβ42s; assay: Focused small molecule screen, double culture (neuron, astrocyte), rescue from sAβ42s toxicity, high content imaging; assay type: cell-based; details: double culture, 5 μM sAβ42s; for percent rescue from sAβ42s toxicity at 6.25 µM / percent rescue from sAβ42s toxicity at 12.5 µM / percent rescue from sAβ42s toxicity at 25 µM / percent rescue from sAβ42s toxicity at 50 µM: Homo sapiens, iPSC
Procedure: FIGS. 11A-11D show synapse % rescue versus MAP2% rescue (FIGS. 11A-11B) and beta III tubulin % rescue versus MAP2% rescue (FIGS. 11C-11D), in neurons and astrocytes (FIGS. 11A and 11C) or neurons, astrocytes, and microglia (FIGS. 11B and 11D) treated with 5 μM sAβ42s and small molecules from a focused screen of known neuroprotective agents at multiple concentrations (50 μM, 25 μM, 12.5 μM and 6.25 μM (double culture), 50 μM, 12.5 μM, 3.1 μM and 0.78 μM (triple culture). Small molecules that prevented toxicity in dendrites (MAP2), synapses (Synapsin 1/2), cell count (CUX2), or axons ([…]) at or above 30% were considered hits (red dotted line).
Neurons from both NSC lines were evaluated by immunofluorescence staining. Briefly, cells were fixed with 4% PFA and 4% sucrose at room temperature for 20 minutes using Bravo automation. Fixed cells were then washed 2 times with PBS using Biotek 406 microplate washer (Beckman Coulter), followed by permeabilization and blocking by incubation with a solution containing 1×PBS, 0.1% Triton X-100, 2% donkey serum, and 1% BSA at room temperature for 30 minutes. Blocking solution was removed and cells were incubated with primary antibodies in blocking solution overnight at 4° C. After washing 6 times with PBS on Biotek 406 cell plate washer (Beckman Coulter), cells were then incubated with fluorophore-conjugated secondary antibodies for 1 hour at room temperature in the dark to avoid photobleaching. Cells were then washed 6 more times in with PBS before imaging. Fluorescent images were captured using IN Cell 6000 confocal microscope (GE Healthcare Life Sciences). The image analysis was performed with IN Cell 6000 analysis software.
Prior to experimentation, media volume in wells containing neurons was equalized with liquid handling automation (Bravo) in order to ensure precise control of concentrations. All Aβ42 oligomers, anti-Aβ, small molecules, inflammatory cytokines were prepared at 10× concentration and added to Neuronal Culture Media at an appropriate volume. For the repeated dosing experiments, the media were refreshed 50% at each dosing first, before adding Aβ42 oligomers, and/or anti-Aβ antibody at the specified final concentration.
In double (neuron, astrocyte) and triple (neuron, astrocyte, microglia) cultures, each small molecule listed in Table 1 was tested in the AD model paradigm at up to four concentrations. Molecules that characterized ≥30% rescue in any of the four measurements of dendrites area (MAP2), synapses count (synapsin 1/2), or cell count (CUX2), or axon area (Beta III Tubulin; “BT3”)) were classified as hits (FIGS. 11A-11D, Table 2, and Table 3).

O=C1NC(=O)C(c2ccccc2[N+](=O)[O-])=C1Nc1ccc(O)c(Cl)c1 [SB 415286]
% B3T rescue ([1]; 50.00 μM compound): 78% | % MAP2 rescue ([1]; 50.00 μM compound): 42% | % Synapse rescue ([1]; 50.00 μM compound): 40% | % B3T rescue ([2]; 50 μM compound): 39% | % Cux2 rescue ([2]; 50 μM compound): −13% | % MAP2 rescue ([2]; 50 μM compound): 19% | % Synapse rescue ([2]; 50 μM compound): 12%

CC(C)C[C@@H](C=O)NC(=O)[C@H](CC(C)C)NC(=O)[C@H](CC(C)C)NC(=O)OCc1ccccc1 [MG-132] (Cbz-Leu-Leu-Leu-aldehyde)
percent rescue from sAβ42s toxicity at 12.5 µM ([1]; read-out: % B3T rescue): 35% | percent rescue from sAβ42s toxicity at 12.5 µM ([1]; read-out: % MAP2 rescue): 18% | percent rescue from sAβ42s toxicity at 12.5 µM ([1]; read-out: % Synapse rescue): -7% | percent rescue from sAβ42s toxicity at 50 µM ([1]; 50.00 μM compound, read-out: % B3T rescue): 46% | percent rescue from sAβ42s toxicity at 50 µM ([1]; 50.00 μM compound, read-out: % MAP2 rescue): 25% | percent rescue from sAβ42s toxicity at 50 µM ([1]; 50.00 μM compound, read-out: % Synapse rescue): -11% | percent rescue from sAβ42s toxicity at 6.25 µM ([2]; 6.25 μM compound, read-out: % B3T rescue): -3% | percent rescue from sAβ42s toxicity at 6.25 µM ([2]; 6.25 μM compound, read-out: % Cux2 rescue): 80% | percent rescue from sAβ42s toxicity at 6.25 µM ([2]; 6.25 μM compound, read-out: % MAP2 rescue): 18% | percent rescue from sAβ42s toxicity at 6.25 µM ([2]; 6.25 μM compound, read-out: % Synapse rescue): -6% | percent rescue from sAβ42s toxicity at 12.5 µM ([2]; 12.5 μM compound, read-out: % B3T rescue): 7% | percent rescue from sAβ42s toxicity at 12.5 µM ([2]; 12.5 μM compound, read-out: % Cux2 rescue): 87% | percent rescue from sAβ42s toxicity at 12.5 µM ([2]; 12.5 μM compound, read-out: % MAP2 rescue): 24% | percent rescue from sAβ42s toxicity at 12.5 µM ([2]; 12.5 μM compound, read-out: % Synapse rescue): 4% | percent rescue from sAβ42s toxicity at 25 µM ([2]; 25 μM compound, read-out: % B3T rescue): 30% | percent rescue from sAβ42s toxicity at 25 µM ([2]; 25 μM compound, read-out: % Cux2 rescue): 91% | percent rescue from sAβ42s toxicity at 25 µM ([2]; 25 μM compound, read-out: % MAP2 rescue): 26% | percent rescue from sAβ42s toxicity at 25 µM ([2]; 25 μM compound, read-out: % Synapse rescue): 8% | percent rescue from sAβ42s toxicity at 50 µM ([2]; 50 μM compound, read-out: % B3T rescue): 57% | percent rescue from sAβ42s toxicity at 50 µM ([2]; 50 μM compound, read-out: % Cux2 rescue): 90% | percent rescue from sAβ42s toxicity at 50 µM ([2]; 50 μM compound, read-out: % MAP2 rescue): 25% | percent rescue from sAβ42s toxicity at 50 µM ([2]; 50 μM compound, read-out: % Synapse rescue): 4%

Cc1ccc2c(c1)C(=O)[C@]1(O)CCN(c3ccccc3)C1=N2 [(S)-(−)-Blebbistatin]
% B3T rescue ([1]; 50.00 μM compound): 36% | % MAP2 rescue ([1]; 50.00 μM compound): 24% | % Synapse rescue ([1]; 50.00 μM compound): 20% | % B3T rescue ([2]; 6.25 μM compound): 41% | % Cux2 rescue ([2]; 6.25 μM compound): 10% | % MAP2 rescue ([2]; 6.25 μM compound): 21% | % Synapse rescue ([2]; 6.25 μM compound): 19% | % B3T rescue ([2]; 12.5 μM compound): 34% | % Cux2 rescue ([2]; 12.5 μM compound): 3% | % MAP2 rescue ([2]; 12.5 μM compound): 25% | % Synapse rescue ([2]; 12.5 μM compound): 15% | % B3T rescue ([2]; 25 μM compound): 38% | % Cux2 rescue ([2]; 25 μM compound): 5% | % MAP2 rescue ([2]; 25 μM compound): 34% | % Synapse rescue ([2]; 25 μM compound): 13% | % B3T rescue ([2]; 50 μM compound): 49% | % Cux2 rescue ([2]; 50 μM compound): 23% | % MAP2 rescue ([2]; 50 μM compound): 34% | % Synapse rescue ([2]; 50 μM compound): 12%

CCN(CC)CCNC(=O)c1c(C)[nH]c(/C=C2\C(=O)Nc3ccc(F)cc32)c1C [SU 11248]
% B3T rescue ([1]; 0.78 μM compound): 69% | % MAP2 rescue ([1]; 0.78 μM compound): 73% | % Synapse rescue ([1]; 0.78 μM compound): 68% | % B3T rescue ([1]; 3.13 μM compound): 74% | % MAP2 rescue ([1]; 3.13 μM compound): 88% | % Synapse rescue ([1]; 3.13 μM compound): 77% | % B3T rescue ([2]; 25 μM compound): −19% | % Cux2 rescue ([2]; 25 μM compound): 59% | % MAP2 rescue ([2]; 25 μM compound): 16% | % Synapse rescue ([2]; 25 μM compound): 4% | % B3T rescue ([2]; 50 μM compound): 4% | % Cux2 rescue ([2]; 50 μM compound): 115% | % MAP2 rescue ([2]; 50 μM compound): 7% | % Synapse rescue ([2]; 50 μM compound): 21%
